Results as given in patent US7067262B2, “Cell line for the expression of an α2δ2 calcium channel subunit and methods of use” (Warner Lambert Company LLC, priority 2000, dated 2006).
pIC50: −log10 of the molar value. Where two headings read alike, the source gives them in different places.

Columns and labels:
[1] = molecular target: T1, porcine α2δ1 (pα2δ1) calcium channel subunit (Sus scrofa, UniProt A0A287BIN3); experiment: [3H]gabapentin radioligand binding to membranes from HEK293 stable cell line GKS02; settings: for affinity in competition with [3H]gabapentin binding, in words: pα2δ1
T1 construct: expressed in transfected cells
Description: Cell culture and transfection. […] The media were supplemented with 50 units/mL penicillin, 50 μg/mL streptomycin, and 10% heat-inactivated fetal bovine serum (FBS), in a humidified incubator with 95% air and 5% CO2 at 37° C. For transient transfection into COS-7 cells, 20 μg of plasmid DNA (vector or the same vector with α2δ insert) was incubated with 30 μL of lipofectamine. The mixture was overlaid onto the cells in 1.5 mL serum-free medium and incubated for 5 hours. Then FBS was added to the dishes to bring the final concentration to 10%. The medium was changed next morning. Forty-eight hours after the transfection, the cells were harvested for membrane preparation. For stable transfection of porcine α2δ1 and human α2δ2 into HEK 293 cells, the same procedure was applied as that for a transient transfection except for that 800 μg/mL G418 (gentacin) was added to the cells 48 hours after the transfection. […] In addition, hosts for expression of α2δ2 protein binding assays can also include eukaryotic expression systems such as yeast, insect cells, and mammalian cells (CHO, COS-7, HEK293, etc.).
(§1) Membrane preparation. Membranes were prepared from tissues or cultured cells. The cells were washed twice with cold PBS and then scraped off with cold buffer containing Tris (5 mM, pH 7.4), EDTA (5 mM), PMSF (0.1 mM), leupeptin (0.02 mM), and pepstatin (0.02 mM). The cells were incubated on ice for 30 minutes, followed by sonication for 30 to 40 seconds. For membrane preparations from tissues, the tissues were sliced into small pieces and subjected to sonication at interval of 10 seconds 4 times. The resulting homogenates from tissues or cultured cells were centrifuged for 10 minutes at 750 to 1000×g, and then the supernatants were centrifuged at 50,000×g for 30 minutes. The resulting pellets were resuspended in the same buffer as described above.
Binding assays. […] The membranes (100 μg of proteins for transiently transfected cells, 20 μg for GKS02 cell membranes, and 10 μg for GKS07 cell membranes) were incubated in 10 mM HEPES (N-[2-hydroxyethyl]piperazine-N′-[2-ethanesulfonic acid]) (pH 7.4) for 40 to 50 minutes at room temperature, and then filtered onto pre-wetted GF/C membranes and quickly washed five times with 3 mL of ice cold 50 mM Tris buffer (pH 7.4). The filters were dried and counted in a liquid scintillation counter. […] The specific binding was obtained by subtracting nonspecific binding from the total binding.

[2] = molecular target: T2, human α2δ2 (hα2δ2) calcium channel subunit (Homo sapiens, UniProt Q9NY47); experiment: [3H]gabapentin radioligand binding to membranes from HEK293 stable cell line GKS07; settings: for affinity in competition with [3H]gabapentin binding, in words: hα2δ2
T2 construct: covered the whole open reading frame of hα2δ2 cDNA; expressed in transfected cells
Description: Cell culture and transfection. COS-7 and HEK293 cells were cultured in DMEM and RPMI 1640 media, respectively. The media were supplemented with 50 units/mL penicillin, 50 μg/mL streptomycin, and 10% heat-inactivated fetal bovine serum (FBS), in a humidified incubator with 95% air and 5% CO2 at 37° C. For transient transfection into COS-7 cells, 20 μg of plasmid DNA (vector or the same vector with α2δ insert) was incubated with 30 μL of lipofectamine. The mixture was overlaid onto the cells in 1.5 mL serum-free medium and incubated for 5 hours. Then FBS was added to the dishes to bring the final concentration to 10%. The medium was changed next morning. Forty-eight hours after the transfection, the cells were harvested for membrane preparation. For stable transfection of porcine α2δ1 and human α2δ2 into HEK 293 cells, the same procedure was applied as that for a transient transfection except for that 800 μg/mL G418 (gentacin) was added to the cells 48 hours after the transfection. […] The cell line has ATCC No. PTA-1823. In addition, hosts for expression of α2δ2 protein binding assays can also include eukaryotic expression systems such as yeast, insect cells, and mammalian cells (CHO, COS-7, HEK293, etc.).
as §1
Binding assays. […] The membranes (100 μg of proteins for transiently transfected cells, 20 μg for GKS02 cell membranes, and 10 μg for GKS07 cell membranes) were incubated in 10 mM HEPES (N-[2-hydroxyethyl]piperazine-N′-[2-ethanesulfonic acid]) (pH 7.4) for 40 to 50 minutes at room temperature, and then filtered onto pre-wetted GF/C membranes and quickly washed five times with 3 mL of ice cold 50 mM Tris buffer (pH 7.4). The filters were dried and counted in a liquid scintillation counter. For determining nonspecific binding, the binding assays were performed in the presence of 10 μM pregabalin (Gee N. S., Brown J. P., Dissanayake V. U., Offord J.; Thurlow R., Woodruff G. N., J. Biol. Chem., 1996;271:5768–5776). The specific binding was obtained by subtracting nonspecific binding from the total binding. Clone #7 was identified as the highest α2δ2 subunit expressing clone. Binding assays can also be performed using recombinant and/or purified α2δ2 protein from human and other mammalian species, for screening α2δ2 subtype-selective inhibitors.

T2 sequence (Q9NY47 19-1145 isoform Q9NY47-3 limits assumed): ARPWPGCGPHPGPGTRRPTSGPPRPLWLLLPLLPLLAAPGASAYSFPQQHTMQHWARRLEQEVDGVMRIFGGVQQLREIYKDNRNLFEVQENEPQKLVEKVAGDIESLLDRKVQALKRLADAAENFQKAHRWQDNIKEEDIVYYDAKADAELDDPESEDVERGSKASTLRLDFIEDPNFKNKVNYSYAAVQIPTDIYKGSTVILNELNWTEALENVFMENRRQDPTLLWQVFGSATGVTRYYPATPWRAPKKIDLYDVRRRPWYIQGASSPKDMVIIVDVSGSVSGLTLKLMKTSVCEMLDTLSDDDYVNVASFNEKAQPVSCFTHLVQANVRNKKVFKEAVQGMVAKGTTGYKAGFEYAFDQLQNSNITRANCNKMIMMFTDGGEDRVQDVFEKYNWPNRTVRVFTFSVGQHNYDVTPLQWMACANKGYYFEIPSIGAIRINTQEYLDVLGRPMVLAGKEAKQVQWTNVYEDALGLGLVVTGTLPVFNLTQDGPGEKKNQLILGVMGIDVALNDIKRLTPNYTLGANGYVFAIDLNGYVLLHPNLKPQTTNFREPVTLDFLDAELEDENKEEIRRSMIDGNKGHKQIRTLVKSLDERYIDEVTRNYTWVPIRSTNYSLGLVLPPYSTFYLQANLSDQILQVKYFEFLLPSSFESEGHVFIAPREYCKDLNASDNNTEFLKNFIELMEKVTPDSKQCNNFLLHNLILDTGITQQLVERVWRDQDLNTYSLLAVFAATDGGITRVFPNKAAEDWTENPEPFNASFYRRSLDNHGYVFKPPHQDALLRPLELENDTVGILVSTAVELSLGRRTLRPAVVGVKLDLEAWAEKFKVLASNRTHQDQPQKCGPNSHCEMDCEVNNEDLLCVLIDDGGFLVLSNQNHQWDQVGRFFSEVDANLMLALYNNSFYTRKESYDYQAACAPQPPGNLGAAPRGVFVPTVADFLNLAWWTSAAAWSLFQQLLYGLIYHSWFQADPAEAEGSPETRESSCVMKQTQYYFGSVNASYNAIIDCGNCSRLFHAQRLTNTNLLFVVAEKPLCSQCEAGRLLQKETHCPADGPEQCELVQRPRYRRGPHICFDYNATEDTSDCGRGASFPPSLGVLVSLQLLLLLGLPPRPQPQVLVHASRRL
T2 sequence (Q9NY47 1002-1150 partner limits assumed): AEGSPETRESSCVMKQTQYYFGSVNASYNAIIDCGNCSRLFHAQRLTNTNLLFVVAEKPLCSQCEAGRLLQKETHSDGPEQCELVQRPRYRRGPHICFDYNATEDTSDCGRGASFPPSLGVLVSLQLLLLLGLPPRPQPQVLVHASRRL
T1 sequence (A0A287BIN3 25-1109): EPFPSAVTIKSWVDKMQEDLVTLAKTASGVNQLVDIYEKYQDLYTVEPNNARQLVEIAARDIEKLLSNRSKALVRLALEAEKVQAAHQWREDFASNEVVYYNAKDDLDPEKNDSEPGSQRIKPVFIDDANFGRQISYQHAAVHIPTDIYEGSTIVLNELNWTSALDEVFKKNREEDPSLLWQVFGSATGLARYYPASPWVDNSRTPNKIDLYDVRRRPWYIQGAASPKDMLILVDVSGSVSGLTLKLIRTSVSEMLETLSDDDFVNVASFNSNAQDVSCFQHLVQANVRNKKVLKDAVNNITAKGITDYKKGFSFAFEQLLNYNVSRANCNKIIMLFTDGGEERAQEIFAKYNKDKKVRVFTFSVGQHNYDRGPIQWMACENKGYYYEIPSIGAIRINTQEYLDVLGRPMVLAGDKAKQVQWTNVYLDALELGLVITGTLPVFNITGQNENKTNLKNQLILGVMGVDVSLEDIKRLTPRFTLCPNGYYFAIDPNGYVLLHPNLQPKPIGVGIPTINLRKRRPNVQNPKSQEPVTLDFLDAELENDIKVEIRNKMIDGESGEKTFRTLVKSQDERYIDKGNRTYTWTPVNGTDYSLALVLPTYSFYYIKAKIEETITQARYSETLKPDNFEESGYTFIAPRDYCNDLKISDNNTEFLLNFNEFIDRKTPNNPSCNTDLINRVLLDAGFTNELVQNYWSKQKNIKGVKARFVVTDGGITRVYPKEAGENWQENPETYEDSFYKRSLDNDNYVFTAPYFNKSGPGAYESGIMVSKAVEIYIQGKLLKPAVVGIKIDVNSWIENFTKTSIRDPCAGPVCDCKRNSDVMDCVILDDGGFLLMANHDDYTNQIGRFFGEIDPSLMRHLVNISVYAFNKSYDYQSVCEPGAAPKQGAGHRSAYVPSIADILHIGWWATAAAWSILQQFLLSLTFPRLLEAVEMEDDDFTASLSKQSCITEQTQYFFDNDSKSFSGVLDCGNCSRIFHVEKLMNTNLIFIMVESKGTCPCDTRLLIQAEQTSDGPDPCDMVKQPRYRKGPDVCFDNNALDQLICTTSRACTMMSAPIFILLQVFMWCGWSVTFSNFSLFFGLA

In the case of `NC1(C(=O)O)CC2CCC1C2` (stereo not shown) [BCH], the “affinity in competition with [3H]gabapentin binding, in words” value (from here on “affinity in competition”) [1] was “weak”, the pIC50 ([1]; read-out: IC50 Values for Inhibition of [3H]Gabapentin Binding, GKS02 (pα2δ1), membranes from HEK293 cell line GKS02, 20 nM [3H]gabapentin) was 5.99 and the “affinity in competition” value [2] was “weak”. The pIC50 ([2]; read-out: IC50 Values for Inhibition of [3H]Gabapentin Binding, GKS07 (hα2δ2), membranes from HEK293 cell line GKS07, 20 nM [3H]gabapentin) was 6.11.
`CC(C)C[C@@H](N)C(=O)O` [D-leucine] was tested, and the pIC50 [1] was 3.70 and the pIC50 [2] was 3.82.
In the case of `NCC1(CC(=O)O)CCCCC1` [Gabapentin, 1-(aminomethyl)cyclohexane acetic acid], the pIC50 [2] was 6.55.
`CC(C)C[C@H](N)C(=O)O` [L-leucine] was tested, and the pIC50 [1] was 6.93, the “affinity in competition” value [1] was “markedly more potent than its D-enantiomer” and the pIC50 [2] was 6.69. The “affinity in competition” value [2] was “markedly more potent than its D-enantiomer”.
With `N[C@@H](Cc1ccccc1)C(=O)O` [L-phenylalanine] the pIC50 [1] was 6.08, the pIC50 [2] was 5.53 and the “affinity in competition” value [2] was “weak”.
Work on `CC(C)C[C@H](CN)CC(=O)O` [Pregabalin, (S+)-3-isobutyl GABA] yielded a pIC50 [1] of 6.83 and a pIC50 [2] of 7.02.
